Molecules are shown by their SMILES. Where two headings read alike, the source gives them in different places.

Experiment [1] concerns the target T1, full length human IRAK4 protein (Homo sapiens, UniProt Q9NWZ3).
T1 construct: Purified full length human IRAK4 protein; purchased Signal Chem I12-10G-125
T1 sequence (Q9NWZ3 1-460): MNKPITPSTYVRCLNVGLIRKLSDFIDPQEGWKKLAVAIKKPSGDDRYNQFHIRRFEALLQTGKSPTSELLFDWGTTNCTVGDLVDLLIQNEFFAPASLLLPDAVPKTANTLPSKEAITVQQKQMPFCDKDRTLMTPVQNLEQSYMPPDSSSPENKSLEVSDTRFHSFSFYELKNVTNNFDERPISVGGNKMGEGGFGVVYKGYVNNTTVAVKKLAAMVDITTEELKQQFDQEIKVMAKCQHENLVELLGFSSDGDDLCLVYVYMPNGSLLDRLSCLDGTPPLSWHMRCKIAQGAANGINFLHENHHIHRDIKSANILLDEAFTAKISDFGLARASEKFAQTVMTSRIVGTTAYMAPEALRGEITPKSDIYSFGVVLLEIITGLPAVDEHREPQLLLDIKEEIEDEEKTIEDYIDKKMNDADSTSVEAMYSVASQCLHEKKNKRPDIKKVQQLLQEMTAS
Description: IRAK4 Biochemical Assay (Promega ADP-Glo IRAK4 Kinase Enzyme System). The note with it: 3 nM enzyme, 250 μM ATP; for IC50: 2 μM MBP, 60 min at room temperature; for IRAK4 Biochemical Assay Max Inhibition (%): maximum inhibition. On the procedure: For the routine compound screening, an IRAK4 kinase assay was performed as follows using Promega ADP-Glo IRAK4 Kinase Enzyme System (Promega, Cat #2198-AD). Purified full length human IRAK4 protein (Signal Chem; Cat #I12-10G-125) was diluted to a concentration 6 nM in assay buffer (25 mM MOPS, pH 7.2, 12.5 mM β-glycerol-phosphate, 25 mM MgCl2, 5 mM EGTA, 2 mM EDTA, 0.0025% Brij-35, add 0.25 mM DTT to Kinase Assay Buffer prior to use) containing IRAK4 inhibitor at 2× the final concentration in 0.4% DMSO. The reaction was performed in PerkinElmer Proxiplate-384 plus white plate (Fisher Scientific, Cat #50-905-2761) and started by the addition of an equal volume of the assay buffer containing 4 μM native swine myelin basic protein (MBP) and 500 μM ATP to achieve a final concentration of 3 nM enzyme, 2 μM MBP, 250 μM ATP, 1× compound, and 0.2% DMSO. The kinase reaction was allowed to run for 60 min at room temperature (25-27° C.), then 5 μL of ADP-Glo was added to the reaction in each well followed by 40 minutes-incubation at RT. To detect converted […], 10 μL Detection Buffer was added into each well and Incubate at RT in dark for 30 minutes. Finally, luminescence was read using Tecan with 1000 ms of integration time. The luminescent signal positively correlates with ADP amount and kinase activity. Data was analyzed by GraphPad Prism and IC50 was calculated using function log(inhibitor) vs. response—Variable slope (four parameters). Percentage of inhibition was calculated as below:
(§1) % inhibition=(1−(Reading(Sample)−Reading(Negative Control))/(Reading(Positive Control)−Reading(Negative Control)))×100%
The 0% inhibition value comes from the Reading of Positive Control wells having 0 nM compound. The 100% inhibition value comes from the Reading of Negative Control wells having no IRAK4 kinase.

A further experiment concerns the target T2, IRAK4 (Homo sapiens, UniProt Q9NWZ3).
T2 construct: host or cells: human peripheral blood mononuclear cells (PBMCs)
T2 sequence (Q9NWZ3 1-460): T1 sequence (Q9NWZ3 1-460)
Description: IRAK4 Human PBMC TNFα Cell Based Assay (AlphaLISA). The conditions noted are these: TNFα measured. On the procedure: In this assay, serially diluted compounds were incubated with 1×10^4 human peripheral blood mononuclear cells (PBMCs) from STEMCELL (Cat #70025.1) per well of 384-well plate (Fisher Scientific; 50-905-2761) and cultured with TexMACS medium (Miltenyi, Cat #130-097-196), stimulated by R848 (0.5 μM) or IL-1β (10 ng/ml). Plates were covered with lids and incubated for 4 h (R848, Fisher Scientific, Cat #NC9801605) or 24 h (IL-1β, Fisher Scientific, Cat #ENRIL1BI) at 37° C. in a humidified tissue-culture incubator. After a brief centrifugation at 1000 rpm for 5 minutes, 5 μl of culture medium was used for the measurement of the TNFα amount using TNFα (human) AlphaLISA Detection Kit (PerkinElmer, Cat #AL208C) according to manufacturer's protocol. A biotinylated anti-TNFα antibody binds to the Streptavidin-coated Donor beads while another anti-TNFα antibody is conjugated to AlphaLISA Acceptor beads. In the presence of the TNFα, the beads come into close proximity. The excitation of the Donor beads causes the release of singlet oxygen molecules that triggers a cascade of energy transfer in the Acceptor beads, resulting in a sharp peak of light emission at 615 nm. AlphaLISA assay plates were read using PHERAstar. Percentage of inhibition was calculated as below:
as §1
The 0% inhibition value comes from the Reading of Positive Control wells having 0 nM compound. The 100% inhibition value comes from the Reading of Negative Control wells having no R848 or IL-1β.

The mark [2] stands for this setting: human PBMCs stimulated by IL-1β (10 ng/ml), 24 h, read-out: IRAK4 PBMC AlphaLISA IL-1β (IC50).
The mark [3] stands for this setting: human PBMCs stimulated by R848 (0.5 μM), 4 h, read-out: IRAK4 PBMC AlphaLISA R848 (IC50).

Turning to `CC[C@@H]1[C@H](F)C(=O)N[C@@H]1COc1ncc(C#Cc2cnn(C)c2)c2cc(C(N)=O)c(OC)cc12` [Example 17, 1-(((2S,3S,4S)-3-ethyl-4-fluoro-5-oxopyrrolidin-2-yl)methoxy)-7-methoxy-4-((1-methyl-1H-pyrazol-4-yl)ethynyl)isoquinoline-6-carboxamide], the results for the IC50 (in experiment [1]; on IRAK4 (setting [2]); on IRAK4 (setting [3])) were 32 nM, 1.5 nM and 2.4 nM, respectively. The “IRAK4 Biochemical Assay Max Inhibition (%)” value in experiment [1] was 100.0%.
The matching figures for `CC[C@@H]1[C@H](F)C(=O)N[C@@H]1COc1ncc(C#C[C@H](C)O)c2cc(C(N)=O)c(OC)cc12` [Example 18, 1-(((2S,3S,4S)-3-ethyl-4-fluoro-5-oxopyrrolidin-2-yl)methoxy)-4-((S)-3-hydroxybut-1-yn-1-yl)-7-methoxyisoquinoline-6-carboxamide]: 27.5 nM, 1.7 nM, 2.5 nM and 95.0%.
The matching figures for `CC[C@@H]1[C@H](F)C(=O)N[C@@H]1COc1ncc(C#C[C@@H](C)O)c2cc(C(N)=O)c(OC)cc12` [Example 19, 1-(((2S,3S,4S)-3-ethyl-4-fluoro-5-oxopyrrolidin-2-yl)methoxy)-4-((R)-3-hydroxybut-1-yn-1-yl)-7-methoxyisoquinoline-6-carboxamide]: 13 nM, 1.3 nM, 3 nM and 100.0%.
With `CC[C@@H]1[C@H](F)C(=O)N[C@@H]1COc1ncc(C#Cc2cn[nH]c2)c2cc(C(N)=O)c(OC)cc12` [Example 20, 4-((1H-pyrazol-4-yl)ethynyl)-1-(((2S,3S,4S)-3-ethyl-4-fluoro-5-oxopyrrolidin-2-yl)methoxy)-7-methoxyisoquinoline-6-carboxamide], the IC50 came out at 22 nM in experiment [1], 1.7 nM at IRAK4 (setting [2]) and 3 nM at IRAK4 (setting [3]). Also, in experiment [1], the “IRAK4 Biochemical Assay Max Inhibition (%)” value is 100.0%.
The matching figures for `CC[C@@H]1[C@H](F)C(=O)N[C@@H]1COc1ncc(C#Cc2nnn(C)n2)c2cc(C(N)=O)c(OC)cc12` [Example 21, 1-(((2S,3S,4S)-3-ethyl-4-fluoro-5-oxopyrrolidin-2-yl)methoxy)-7-methoxy-4-((2-methyl-2H-tetrazol-5-yl)ethynyl)isoquinoline-6-carboxamide]: 22 nM, 4.6 nM, 3.1 nM and 98.0%.
Regarding `CC[C@@H]1[C@H](F)C(=O)N[C@@H]1COc1ncc(C#Cc2ccncc2)c2cc(C(N)=O)c(OC)cc12` [Example 22, 1-(((2S,3S,4S)-3-ethyl-4-fluoro-5-oxopyrrolidin-2-yl)methoxy)-7-methoxy-4-(pyridin-4-ylethynyl)isoquinoline-6-carboxamide], the IC50 in experiment [1] was 23 nM; on IRAK4 (setting [2]), 0.8 nM; at IRAK4 (setting [3]) it was 3.4 nM. For the same compound, the “IRAK4 Biochemical Assay Max Inhibition (%)” value in experiment [1] is 100.0%.
With `CC[C@@H]1[C@H](F)C(=O)N[C@@H]1COc1ncc(C#CCOC)c2cc(C(N)=O)c(OC(C)C)cc12` [Example 25, 1-(((2S,3S,4S)-3-ethyl-4-fluoro-5-oxopyrrolidin-2-yl)methoxy)-7-isopropoxy-4-(3-methoxyprop-1-yn-1-yl)isoquinoline-6-carboxamide], the IC50 in experiment [1] was found to be 27 nM; on IRAK4 (setting [2]), 3.9 nM; on IRAK4 (setting [3]), 5 nM. In experiment [1], the “IRAK4 Biochemical Assay Max Inhibition (%)” value is on record as 103.0%.
As to `CC[C@@H]1[C@H](F)C(=O)N[C@@H]1COc1ncc(C#Cc2ccccc2)c2cc(C(N)=O)c(OC)cc12` [Example 27, 1-(((2S,3S,4S)-3-ethyl-4-fluoro-5-oxopyrrolidin-2-yl)methoxy)-7-methoxy-4-(phenylethynyl)isoquinoline-6-carboxamide], the figures for the IC50 (in experiment [1]; at IRAK4 (setting [2]); on IRAK4 (setting [3])) were 24 nM, 1.8 nM and 5.3 nM, respectively. For the same compound, the “IRAK4 Biochemical Assay Max Inhibition (%)” value in experiment [1] worked out at 100.0%.
For `CC[C@@H]1[C@H](F)C(=O)N[C@@H]1COc1ncc(C#CC(C)(C)OC)c2cc(C(N)=O)c(OC)cc12` [Example 28, 1-(((2S,3S,4S)-3-ethyl-4-fluoro-5-oxopyrrolidin-2-yl)methoxy)-7-methoxy-4-(3-methoxy-3-methylbut-1-yn-1-yl)isoquinoline-6-carboxamide], the IC50 in experiment [1] is 37 nM; at IRAK4 (setting [2]), 9.2 nM; on IRAK4 (setting [3]) it was 5.5 nM. Besides, the “IRAK4 Biochemical Assay Max Inhibition (%)” value in experiment [1] amounted to 100.0%.
As to `CC[C@@H]1[C@H](F)C(=O)N[C@@H]1COc1ncc(C#CC(C)(C)O)c2cc(C(N)=O)c(OC(C)C)cc12` [Example 29, 1-(((2S,3S,4S)-3-ethyl-4-fluoro-5-oxopyrrolidin-2-yl)methoxy)-4-(3-hydroxyl-3-methylbut-1-yn-1-yl)-7-isopropoxyisoquinoline-6-carboxamide], the IC50 in experiment [1] turned out to be 26 nM; on IRAK4 (setting [2]), 3.5 nM; at IRAK4 (setting [3]), 6.7 nM. Further, the “IRAK4 Biochemical Assay Max Inhibition (%)” value in experiment [1] was determined as 100.0%.
In the same order, the values of `CC[C@@H]1[C@H](F)C(=O)N[C@@H]1COc1ccc(C#CC(C)(C)O)c2cc(C(N)=O)c(OC)cc12` [Example 31, 5-(((2S,3S,4S)-3-ethyl-4-fluoro-5-oxopyrrolidin-2-yl)methoxy)-8-(3-hydroxyl-3-methylbut-1-yn-1-yl)-3-methoxy-2-naphthamide] are 32 nM, 5.6 nM, 8.3 nM and 95.0%.
In the same order, the values of `CC[C@@H]1[C@H](F)C(=O)N[C@@H]1COc1ncc(C#CC(C)(C)C)c2cc(C(N)=O)c(OC)cc12` [Example 32, 4-(3,3-dimethylbut-1-yn-1-yl)-1-(((2S,3S,4S)-3-ethyl-4-fluoro-5-oxopyrrolidin-2-yl)methoxy)-7-methoxyisoquinoline-6-carboxamide] are 45 nM, 17 nM, 11 nM and 99.0%.
`CC[C@@H]1[C@H](F)C(=O)N[C@@H]1COc1ccc(C#CC(C)(C)N(C)C)c2cc(C(N)=O)c(OC)cc12` [Example 33, 8-(3-(dimethylamino)-3-methylbut-1-yn-1-yl)-5-(((2S,3S,4S)-3-ethyl-4-fluoro-5-oxopyrrolidin-2-yl)methoxy)-3-methoxy-2-naphthamide]: the IC50 in experiment [1] is 13 nM; at IRAK4 (setting [2]), 41 nM; at IRAK4 (setting [3]), 25 nM. For the same compound, the “IRAK4 Biochemical Assay Max Inhibition (%)” value in experiment [1] is on record as 99.0%.

Values taken from US20220177446A1, “ALKYNE COMPOUNDS AS IRAK INHIBITORS, PREPARATION METHODS AND MEDICINAL USES THEREOF” (Eternity Bioscience Inc., priority 2020, published 2022).
